The values that follow come from ChEMBL document CHEMBL5696442, “Discovery of type II inhibitors of TGFβ-activated kinase 1 (TAK1) and mitogen-activated protein kinase kinase kinase kinase 2 (MAP4K2)” (J Med Chem, 2015).

Molecules are shown by their SMILES. Calls of active or inactive are those of the source. The rule behind the calls is not given here.

The target in assay [1] is Non-receptor tyrosine-protein kinase TNK1 (Homo sapiens) (UniProt Q13470). The assay is described as follows: Inhibition of TNK1 (unknown origin) at 1 uM by Ambit Kinomescan binding assay relative to control.
The target of assay [2] is Serine/threonine-protein kinase MRCK alpha (Homo sapiens) (UniProt Q5VT25). The assay can be described thus: Inhibition of MRCKA (unknown origin) at 1 uM by Ambit Kinomescan binding assay relative to control.
The target in assay [3] is Ephrin type-B receptor 6 (Homo sapiens) (UniProt O15197). The assay can be described thus: Inhibition of EPHB6 (unknown origin) at 1 uM by Ambit Kinomescan binding assay relative to control; values are per cent of control.
Assay [4] addresses Ribosomal protein S6 kinase delta-1 (Homo sapiens) (UniProt Q96S38). The assay is described as follows: Inhibition of RPS6KC1 domain 1 ATP labeling site in human Huh-7 cells at 10 uM by KiNativ Profiling analysis relative to control. The format is cell-based.
The subject of assay [5] is Tyrosine-protein kinase ABL1 (Homo sapiens), P00519 [H396P]. The assay can be described thus: Inhibition of ABL1 H396P mutant (unknown origin) at 10 uM by Ambit Kinomescan binding assay relative to control.
For assay [6], the target named is RAC-gamma serine/threonine-protein kinase (Homo sapiens) (UniProt Q9Y243). The assay is described as follows: Inhibition of AKT3 (unknown origin) at 10 uM by Ambit Kinomescan binding assay.
In assay [7] the target is Ribosomal protein S6 kinase alpha-2 (Homo sapiens) (UniProt Q15349). The assay can be described thus: Inhibition of C-terminal RPS6KA2 kinase domain 2 (unknown origin) at 10 uM by Ambit Kinomescan binding assay.
Assay [8] has as its target T1, Phosphatidylinositol 5-phosphate 4-kinase type-2 beta (Homo sapiens) (UniProt P78356).
T1 sequence (whole entry): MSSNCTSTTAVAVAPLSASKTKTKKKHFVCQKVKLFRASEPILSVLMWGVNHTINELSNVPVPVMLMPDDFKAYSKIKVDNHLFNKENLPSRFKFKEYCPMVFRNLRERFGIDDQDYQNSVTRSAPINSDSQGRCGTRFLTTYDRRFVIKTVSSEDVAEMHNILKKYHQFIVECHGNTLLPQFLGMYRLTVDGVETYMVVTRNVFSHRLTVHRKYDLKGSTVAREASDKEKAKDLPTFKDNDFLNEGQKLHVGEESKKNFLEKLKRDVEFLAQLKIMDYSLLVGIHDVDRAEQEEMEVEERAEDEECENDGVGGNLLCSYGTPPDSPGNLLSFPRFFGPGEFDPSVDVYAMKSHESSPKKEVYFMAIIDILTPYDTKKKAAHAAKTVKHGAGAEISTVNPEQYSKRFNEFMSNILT
The assay is described as follows: Inhibition of PIP5K2B (unknown origin) at 10 uM by Ambit Kinomescan binding assay.

In assay [9] the target is Fibroblast growth factor receptor 4 (Homo sapiens) (UniProt P22455). The assay is described as follows: Inhibition of FGFR4 (unknown origin) at 10 uM by Ambit Kinomescan binding assay relative to control.
The target in assay [10] is Cyclin-dependent kinase 17 (Homo sapiens) (UniProt Q00537). The assay is described as follows: Inhibition of PCTAIRE2 PCTAIRE3 Lys1 labeling site in human Huh-7 cell lysate at 1 uM by KiNativ Profiling analysis relative to control. The format is subcellular.
Assay [11] has as its target Calcium/calmodulin-dependent protein kinase type II subunit delta (Homo sapiens) (UniProt Q13557). The assay is described as follows: Inhibition of CaMK2d Lys1 labeling site harbouring IPTGQEYAAKIINTK in human Huh-7 cells at 1 uM by KiNativ Profiling analysis relative to control. The assay is classed as cell-based.
Assay [12] in a line: Inhibition of KHS2 Lys1 labeling site in human Huh-7 cells at 1 uM by KiNativ Profiling analysis relative to control. The following applies: condition cancer.
Assay [13] has as its target T2, Inhibitor of nuclear factor kappa-B kinase subunit epsilon (Homo sapiens) (UniProt Q14164).
T2 sequence (whole entry): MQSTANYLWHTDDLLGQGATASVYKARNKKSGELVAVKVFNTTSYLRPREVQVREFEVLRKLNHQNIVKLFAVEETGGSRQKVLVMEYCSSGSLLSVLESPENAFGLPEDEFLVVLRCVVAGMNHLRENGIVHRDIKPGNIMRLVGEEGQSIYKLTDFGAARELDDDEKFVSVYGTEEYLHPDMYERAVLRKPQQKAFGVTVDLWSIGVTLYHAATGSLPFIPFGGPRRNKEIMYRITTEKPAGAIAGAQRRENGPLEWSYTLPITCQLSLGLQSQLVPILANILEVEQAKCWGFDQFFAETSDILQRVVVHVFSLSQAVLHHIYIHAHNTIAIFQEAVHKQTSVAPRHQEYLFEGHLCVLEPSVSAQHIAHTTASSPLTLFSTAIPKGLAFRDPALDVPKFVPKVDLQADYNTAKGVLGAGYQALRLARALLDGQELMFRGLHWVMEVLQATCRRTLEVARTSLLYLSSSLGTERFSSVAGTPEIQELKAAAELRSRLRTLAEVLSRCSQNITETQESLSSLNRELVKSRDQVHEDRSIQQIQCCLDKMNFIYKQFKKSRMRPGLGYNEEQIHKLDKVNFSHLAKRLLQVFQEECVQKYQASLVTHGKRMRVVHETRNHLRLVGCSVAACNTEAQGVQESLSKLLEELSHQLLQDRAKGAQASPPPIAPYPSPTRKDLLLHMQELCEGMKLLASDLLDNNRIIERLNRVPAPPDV
The assay can be described thus: Inhibition of IKKe Lys2 labeling site in human Huh-7 cells at 1 uM by KiNativ Profiling analysis relative to control. The assay is classed as cell-based.

The target in assay [14] is Ribosomal protein S6 kinase alpha-3 (Homo sapiens) (UniProt P51812). The assay can be described thus: Inhibition of RSK2 domain 1 Lys2 labeling site harbouring DLKPENILLDEEGHIKLTDFGLSK in human Huh-7 cell lysate at 1 uM by KiNativ Profiling analysis relative to control. The format is subcellular.
Assay [15] deals with 5'-AMP-activated protein kinase catalytic subunit alpha-1 (Homo sapiens) (UniProt Q13131). The assay is described as follows: Inhibition of AMPKa1 Lys2 labeling site in human Huh-7 cell lysate at 1 uM by KiNativ Profiling analysis relative to control. The format is subcellular.
The target in assay [16] is Wee1-like protein kinase (Homo sapiens) (UniProt P30291). The assay is described as follows: Inhibition of Wee1 Lys2 labeling site in human Huh-7 cell lysate at 1 uM by KiNativ Profiling analysis relative to control. The format is subcellular.
Sequence of Wee1-like protein kinase (Homo sapiens) (P30291 whole entry, looked up): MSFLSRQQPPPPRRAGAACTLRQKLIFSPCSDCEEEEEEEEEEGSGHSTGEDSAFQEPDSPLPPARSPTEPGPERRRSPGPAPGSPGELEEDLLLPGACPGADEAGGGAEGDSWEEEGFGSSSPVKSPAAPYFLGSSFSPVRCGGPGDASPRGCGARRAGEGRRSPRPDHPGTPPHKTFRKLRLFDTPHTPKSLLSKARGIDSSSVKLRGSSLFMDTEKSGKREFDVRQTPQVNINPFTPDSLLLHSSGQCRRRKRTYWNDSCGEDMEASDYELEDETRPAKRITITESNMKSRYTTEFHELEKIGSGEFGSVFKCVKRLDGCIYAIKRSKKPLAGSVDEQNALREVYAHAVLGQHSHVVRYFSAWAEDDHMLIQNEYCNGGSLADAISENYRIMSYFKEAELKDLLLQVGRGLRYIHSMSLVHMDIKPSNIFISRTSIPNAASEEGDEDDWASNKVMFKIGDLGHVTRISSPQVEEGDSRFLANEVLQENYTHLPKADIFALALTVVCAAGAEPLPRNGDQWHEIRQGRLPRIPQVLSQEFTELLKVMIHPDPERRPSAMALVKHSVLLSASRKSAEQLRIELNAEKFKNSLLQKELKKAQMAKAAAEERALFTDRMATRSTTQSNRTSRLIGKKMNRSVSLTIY

Sequence of Calcium/calmodulin-dependent protein kinase type II subunit delta (Homo sapiens) (Q13557 whole entry): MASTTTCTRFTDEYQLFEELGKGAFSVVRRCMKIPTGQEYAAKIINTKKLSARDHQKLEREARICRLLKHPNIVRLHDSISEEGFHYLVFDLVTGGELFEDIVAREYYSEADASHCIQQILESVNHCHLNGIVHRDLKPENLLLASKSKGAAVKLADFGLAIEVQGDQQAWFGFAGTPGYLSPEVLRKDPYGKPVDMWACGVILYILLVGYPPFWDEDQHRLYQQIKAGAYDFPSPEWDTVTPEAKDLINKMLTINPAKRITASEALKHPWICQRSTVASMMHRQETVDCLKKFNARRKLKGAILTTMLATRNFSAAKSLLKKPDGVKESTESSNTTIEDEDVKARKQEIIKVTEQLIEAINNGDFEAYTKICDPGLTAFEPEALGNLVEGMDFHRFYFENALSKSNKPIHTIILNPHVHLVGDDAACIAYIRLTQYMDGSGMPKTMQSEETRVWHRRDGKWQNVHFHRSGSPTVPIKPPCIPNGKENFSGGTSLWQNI
Sequence of Ribosomal protein S6 kinase alpha-2 (Homo sapiens) (Q15349 whole entry, the tested form may be a part): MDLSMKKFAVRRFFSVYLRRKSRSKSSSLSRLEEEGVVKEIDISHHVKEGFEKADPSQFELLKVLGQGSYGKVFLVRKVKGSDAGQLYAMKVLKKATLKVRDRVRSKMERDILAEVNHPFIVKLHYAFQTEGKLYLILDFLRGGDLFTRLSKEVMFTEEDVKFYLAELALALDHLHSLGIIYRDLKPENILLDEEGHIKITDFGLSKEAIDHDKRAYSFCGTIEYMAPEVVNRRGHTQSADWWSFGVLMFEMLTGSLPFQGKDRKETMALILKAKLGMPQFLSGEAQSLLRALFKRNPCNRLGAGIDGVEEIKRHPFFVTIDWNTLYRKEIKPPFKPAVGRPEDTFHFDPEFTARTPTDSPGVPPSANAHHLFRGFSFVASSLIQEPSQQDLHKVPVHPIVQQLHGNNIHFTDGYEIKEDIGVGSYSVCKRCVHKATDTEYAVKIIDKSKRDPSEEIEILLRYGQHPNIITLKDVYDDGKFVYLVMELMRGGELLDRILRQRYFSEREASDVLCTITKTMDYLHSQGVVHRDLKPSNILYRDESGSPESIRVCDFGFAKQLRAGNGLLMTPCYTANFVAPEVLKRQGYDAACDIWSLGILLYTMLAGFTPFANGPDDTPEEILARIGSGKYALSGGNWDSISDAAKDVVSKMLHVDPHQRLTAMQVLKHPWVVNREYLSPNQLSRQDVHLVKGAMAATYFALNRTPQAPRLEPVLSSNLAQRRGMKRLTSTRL
Sequence of 5'-AMP-activated protein kinase catalytic subunit alpha-1 (Homo sapiens) (Q13131 whole entry, looked up): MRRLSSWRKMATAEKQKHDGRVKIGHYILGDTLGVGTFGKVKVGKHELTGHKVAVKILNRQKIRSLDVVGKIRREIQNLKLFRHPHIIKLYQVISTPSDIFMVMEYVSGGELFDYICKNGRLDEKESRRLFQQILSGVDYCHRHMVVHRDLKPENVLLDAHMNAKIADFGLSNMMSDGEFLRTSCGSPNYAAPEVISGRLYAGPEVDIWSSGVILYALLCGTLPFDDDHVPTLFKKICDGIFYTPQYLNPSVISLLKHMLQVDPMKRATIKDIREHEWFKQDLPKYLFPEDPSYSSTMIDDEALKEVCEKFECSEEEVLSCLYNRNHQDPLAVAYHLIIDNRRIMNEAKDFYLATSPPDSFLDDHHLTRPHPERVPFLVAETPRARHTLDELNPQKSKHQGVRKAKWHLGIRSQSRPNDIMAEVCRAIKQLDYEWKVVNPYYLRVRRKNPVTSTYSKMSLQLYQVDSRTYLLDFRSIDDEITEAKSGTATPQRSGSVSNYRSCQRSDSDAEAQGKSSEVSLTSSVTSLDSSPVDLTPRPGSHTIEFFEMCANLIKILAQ
Sequence of Ephrin type-B receptor 6 (Homo sapiens) (O15197 whole entry, the tested form may be a part): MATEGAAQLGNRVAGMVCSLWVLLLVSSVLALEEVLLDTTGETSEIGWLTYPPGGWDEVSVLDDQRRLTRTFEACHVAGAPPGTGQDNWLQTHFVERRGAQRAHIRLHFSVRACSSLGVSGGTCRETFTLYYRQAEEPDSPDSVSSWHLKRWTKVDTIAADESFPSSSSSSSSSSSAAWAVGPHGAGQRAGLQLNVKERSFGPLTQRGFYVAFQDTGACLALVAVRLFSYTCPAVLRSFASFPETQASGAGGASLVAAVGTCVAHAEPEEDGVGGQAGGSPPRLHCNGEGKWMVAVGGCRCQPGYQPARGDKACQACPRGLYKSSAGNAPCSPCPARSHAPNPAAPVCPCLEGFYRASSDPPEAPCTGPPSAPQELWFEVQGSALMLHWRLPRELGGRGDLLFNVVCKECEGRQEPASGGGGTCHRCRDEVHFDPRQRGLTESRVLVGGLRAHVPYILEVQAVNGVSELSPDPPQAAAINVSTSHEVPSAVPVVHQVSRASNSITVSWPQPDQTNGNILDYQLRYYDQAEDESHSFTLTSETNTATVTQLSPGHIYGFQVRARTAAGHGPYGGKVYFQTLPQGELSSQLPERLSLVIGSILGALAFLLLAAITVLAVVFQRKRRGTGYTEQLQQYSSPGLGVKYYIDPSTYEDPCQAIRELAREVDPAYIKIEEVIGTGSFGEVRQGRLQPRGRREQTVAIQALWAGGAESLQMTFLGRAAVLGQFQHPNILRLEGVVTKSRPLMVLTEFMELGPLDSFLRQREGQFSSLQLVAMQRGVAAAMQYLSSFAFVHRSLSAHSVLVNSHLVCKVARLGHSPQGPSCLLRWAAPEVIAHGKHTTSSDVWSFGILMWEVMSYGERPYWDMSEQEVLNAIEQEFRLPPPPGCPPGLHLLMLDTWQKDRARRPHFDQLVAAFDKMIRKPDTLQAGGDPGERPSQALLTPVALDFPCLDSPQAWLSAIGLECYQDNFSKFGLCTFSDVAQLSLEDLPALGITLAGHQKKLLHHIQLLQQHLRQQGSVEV
Sequence of RAC-gamma serine/threonine-protein kinase (Homo sapiens) (Q9Y243 whole entry, the tested form may be a part): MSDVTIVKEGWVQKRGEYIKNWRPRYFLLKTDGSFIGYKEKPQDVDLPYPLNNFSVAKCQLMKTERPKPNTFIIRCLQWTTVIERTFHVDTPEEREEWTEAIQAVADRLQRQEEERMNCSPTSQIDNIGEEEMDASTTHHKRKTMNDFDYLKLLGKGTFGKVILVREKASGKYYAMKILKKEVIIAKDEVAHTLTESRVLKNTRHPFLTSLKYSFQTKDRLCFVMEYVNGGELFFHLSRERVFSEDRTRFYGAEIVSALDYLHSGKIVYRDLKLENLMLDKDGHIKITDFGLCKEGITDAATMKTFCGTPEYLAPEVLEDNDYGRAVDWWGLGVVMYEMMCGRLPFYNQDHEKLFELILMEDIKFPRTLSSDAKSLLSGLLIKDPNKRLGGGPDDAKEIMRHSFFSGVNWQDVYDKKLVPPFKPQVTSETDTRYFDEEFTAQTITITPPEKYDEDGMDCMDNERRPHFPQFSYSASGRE
Sequence of Fibroblast growth factor receptor 4 (Homo sapiens) (P22455 22-802 limits assumed): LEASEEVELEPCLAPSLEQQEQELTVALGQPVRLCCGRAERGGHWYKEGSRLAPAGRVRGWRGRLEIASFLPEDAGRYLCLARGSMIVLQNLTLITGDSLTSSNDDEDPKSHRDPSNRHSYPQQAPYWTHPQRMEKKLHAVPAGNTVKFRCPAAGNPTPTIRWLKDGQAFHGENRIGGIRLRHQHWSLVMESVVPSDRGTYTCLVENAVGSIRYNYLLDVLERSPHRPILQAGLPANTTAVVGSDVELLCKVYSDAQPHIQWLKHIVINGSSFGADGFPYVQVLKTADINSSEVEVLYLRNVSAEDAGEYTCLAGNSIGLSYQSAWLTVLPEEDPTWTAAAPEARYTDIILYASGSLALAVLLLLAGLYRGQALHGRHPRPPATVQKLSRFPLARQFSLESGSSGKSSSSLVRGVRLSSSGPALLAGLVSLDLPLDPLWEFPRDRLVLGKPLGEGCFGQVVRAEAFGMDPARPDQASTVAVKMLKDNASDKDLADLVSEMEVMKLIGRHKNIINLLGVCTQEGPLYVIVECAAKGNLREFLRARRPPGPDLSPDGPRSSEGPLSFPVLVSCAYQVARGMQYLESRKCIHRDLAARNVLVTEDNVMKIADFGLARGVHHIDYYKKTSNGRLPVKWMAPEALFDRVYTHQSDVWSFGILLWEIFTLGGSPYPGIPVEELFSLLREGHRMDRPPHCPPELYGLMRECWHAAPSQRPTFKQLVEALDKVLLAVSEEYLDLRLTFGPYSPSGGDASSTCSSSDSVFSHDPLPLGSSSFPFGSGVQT

By inhibition is commonly meant the relative decrease from the control value, in per cent. Usually residual activity stands for the signal under treatment as a percentage of the control signal. Low values mean little activity left, high ones much activity left. With `CCN1CCN(Cc2ccc(NC(=O)c3ccc(C)c(/C=C/c4cnc5[nH]ccc5c4OC)c3)cc2C(F)(F)F)CC1`, the inhibition in assay [1] is 6.6%; in assay [2] it was 79%. Also, in [3], the residual activity amounted to 2.8%.

As to `CCN1CCN(Cc2ccc(NC(=O)c3ccc(C)c(Oc4ccnc5[nH]ccc45)c3)cc2C(F)(F)F)CC1`, the inhibition came to 15.4% in assay [4], 0.7% in assay [5] and 0.45% in assay [9]. Further, the inhibition result in assay [6], in [7] and in assay [8] was “inactive” each time.

Consider `CNc1cc(Oc2cc(C(=O)Nc3cc(N4CCN(C)CC4)cc(C(F)(F)F)c3)ccc2C)ncn1`, for which the inhibition was -9.5% in [10]; 9.1% in assay [11]; 17.7% in [13]; 3.1% in assay [14]; 0.5% in assay [15]; -4.1% in assay [16]. In [12], the inhibition at 1 µM was found to be 5.3%.
